Source: US6291405A, “Glycol based drilling fluid” (M-I LLC, priority 1998, dated 2001)

Columns and labels:
[1] = Gumbo shale sticking test, diethylene glycol/water plus 10% GMO; conditions: in words
Procedure: This test was conducted using the test method described in example 2, except each test sample contained 10% glycerol monooleate (GMO) as the antisticking agent.

[2] = cited from earlier work; for toxicity ranking: based on laboratory test data, direct ingestion; for LD50: single-dose oral
[3] = Viscosity properties of glycols, Fann 35A viscometer readings; format: physicochemical
Procedure: Readings were taken on a Fann 35A viscometer at 600 and 300 rpm both at room temperature and 120° F.

## CCCCCCCC/C=C\CCCCCCCC(=O)OCC(O)CO (centres unmarked) [glycerol monooleate]
[1]
  antisticking properties: improved the antisticking properties of the diethylene glycol fluids

## butylene glycol
[2]
  toxicity ranking: the least toxic
  LD50: 23-30 gm/KG

## OCCOCCO [Diethylene Glycol, diethylene glycol]
[2]
  toxicity ranking: followed by diethylene, triethylene, and dipropylene glycols
  LD50: 16-21 gm/KG

## OCCO [Ethylene Glycol, ethylene glycol]
[2]
  toxicity ranking: the most toxic
  LD50: 6-12 gm/KG

## CC(CO)CO [2-Methyl Propyl 1,3-Diol, reference compound]
[3]; 120° F, 300 rpm
  Fann 35A viscometer reading: 42
[3]; 120° F, 600 rpm
  Fann 35A viscometer reading: 80
[3]; Room Temperature, 300 rpm
  Fann 35A viscometer reading: 216
[3]; Room Temperature, 600 rpm
  Fann 35A viscometer reading: > 300

## dipropylene glycol
[3]; 120° F, 300 rpm
  Fann 35A viscometer reading: 21
[3]; 120° F, 600 rpm
  Fann 35A viscometer reading: 41
[3]; Room Temperature, 300 rpm
  Fann 35A viscometer reading: 82
[3]; Room Temperature, 600 rpm
  Fann 35A viscometer reading: 163
[2]
  toxicity ranking: followed by diethylene, triethylene, and dipropylene glycols
  LD50: ~ 15 gm/KG

## CC(O)COC(C)COC(C)CO (centres unmarked) [Tripropylene Glycol, tripropylene glycol]
[3]; 120° F, 300 rpm
  Fann 35A viscometer reading: 18
[3]; 120° F, 600 rpm
  Fann 35A viscometer reading: 34
[3]; Room Temperature, 300 rpm
  Fann 35A viscometer reading: 59
[3]; Room Temperature, 600 rpm
  Fann 35A viscometer reading: 116
[2]
  toxicity ranking: the most toxic

## CC(O)CO (centres unmarked) [Propylene Glycol, propylene glycol]
[3]; 120° F, 300 rpm
  Fann 35A viscometer reading: 15
[3]; 120° F, 600 rpm
  Fann 35A viscometer reading: 28
[3]; Room Temperature, 300 rpm
  Fann 35A viscometer reading: 47
[3]; Room Temperature, 600 rpm
  Fann 35A viscometer reading: 92
[2]
  toxicity ranking: the least toxic
  LD50: 21-34 gm/KG

## OCC(O)CO [Glycerine, reference compound]
[3]; 120° F, 300 rpm
  Fann 35A viscometer reading: 135
[3]; 120° F, 600 rpm
  Fann 35A viscometer reading: 262
[3]; Room Temperature, 300 rpm
  Fann 35A viscometer reading: > 300
[3]; Room Temperature, 600 rpm
  Fann 35A viscometer reading: > 300

## OCCOCCOCCO [Triethylene Glycol, triethylene glycol]
[3]; 120° F, 300 rpm
  Fann 35A viscometer reading: 16
[3]; 120° F, 600 rpm
  Fann 35A viscometer reading: 31
[3]; Room Temperature, 300 rpm
  Fann 35A viscometer reading: 42
[3]; Room Temperature, 600 rpm
  Fann 35A viscometer reading: 83
[2]
  toxicity ranking: followed by diethylene, triethylene, and dipropylene glycols
  LD50: 16-22 gm/KG
